Measurements reported in PubChem BioAssay AID2060603 (Molecular Pharmacology Branch, DTP, NCI, 2025).

System: 422866-222-R5-J1-PDC spheroid viability
Assay: Anticancer human tumor 422866-222-R5-J1-PDC patient-derived pancreatic adenocarcinoma cell line growth inhibition [CLK]
Conditions: spheroids with HUVEC and MSC; for IC50: curve of first compound; for viability, T/C: stronger effect = lower value
Procedure, shortened: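 Multi-cell-type spheroids combined patient-derived tumor cells with HUVEC endothelial cells and human mesenchymal stem cells. Paired agents were dosed in half-log steps down from about clinical Cmax, or from 10 microM where Cmax was unknown.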

[1] = second compound 0.0316 µM, first compound 0.0316 µM
[2] = second compound 0.0316 µM, first compound 0.1 µM
[3] = second compound 0.0316 µM, first compound 0.316 µM
[4] = second compound 0.0316 µM, first compound 1 µM
[5] = second compound 0.0316 µM, first compound 3.16 µM
[6] = second compound 0.0316 µM, first compound 10 µM
[7] = second compound 0.1 µM, first compound 0.0316 µM
[8] = second compound 0.1 µM, first compound 0.1 µM
[9] = second compound 0.1 µM, first compound 0.316 µM
[10] = second compound 0.1 µM, first compound 1 µM
[11] = second compound 0.1 µM, first compound 3.16 µM
[12] = second compound 0.1 µM, first compound 10 µM
[13] = second compound 0.316 µM, first compound 0.0316 µM
[14] = second compound 0.316 µM, first compound 0.1 µM
[15] = second compound 0.316 µM, first compound 0.316 µM
[16] = second compound 0.316 µM, first compound 1 µM
[17] = second compound 0.316 µM, first compound 3.16 µM
[18] = second compound 0.316 µM, first compound 10 µM
[19] = second compound 1 µM, first compound 0.0316 µM
[20] = second compound 1 µM, first compound 0.1 µM
[21] = second compound 1 µM, first compound 0.316 µM
[22] = second compound 1 µM, first compound 1 µM
[23] = second compound 1 µM, first compound 3.16 µM
[24] = second compound 1 µM, first compound 10 µM
[25] = second compound 3.16 µM, first compound 0.0316 µM
[26] = second compound 3.16 µM, first compound 0.1 µM
[27] = second compound 3.16 µM, first compound 0.316 µM
[28] = second compound 3.16 µM, first compound 1 µM
[29] = second compound 3.16 µM, first compound 3.16 µM
[30] = second compound 3.16 µM, first compound 10 µM
[31] = second compound 10 µM, first compound 0.0316 µM
[32] = second compound 10 µM, first compound 0.1 µM
[33] = second compound 10 µM, first compound 0.316 µM
[34] = second compound 10 µM, first compound 1 µM
[35] = second compound 10 µM, first compound 3.16 µM
[36] = second compound 10 µM, first compound 10 µM
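Further: spheroids exposed to agents for seven days before readout.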

SMILES: C=C(F)C(=O)N1CCN(c2nc(OCC3CCCN3C)nc3c2CCN(c2cccc4cccc(Cl)c24)C3)CC1CC#N (centres undefined) + CNC(=O)c1ccc(Nc2nc(OC3CCCC3)c3c(-c4ccc5nc(C)oc5c4)c[nH]c3n2)c(OC)c1
- IC50 (second compound 0.0316 µM): < 31.6 nM
- IC50 (second compound 0.1 µM): < 31.6 nM
- IC50 (second compound 0.316 µM): < 31.6 nM
- IC50 (second compound 1 µM): < 31.6 nM
- IC50 (second compound 3.16 µM): < 31.6 nM
- IC50 (second compound 10 µM): < 31.6 nM
- viability, T/C [1]: 39.9%
- viability, T/C [2]: 29.7%
- viability, T/C [3]: 23.2%
- viability, T/C [4]: 25.3%
- viability, T/C [5]: 15.7%
- viability, T/C [6]: 0.15%
- viability, T/C [7]: 38.7%
- viability, T/C [8]: 23.9%
- viability, T/C [9]: 23.3%
- viability, T/C [10]: 20.6%
- viability, T/C [11]: 15%
- viability, T/C [12]: 0.14%
- viability, T/C [13]: 29.8%
- viability, T/C [14]: 23.6%
- viability, T/C [15]: 25.1%
- viability, T/C [16]: 23.1%
- viability, T/C [17]: 14.8%
- viability, T/C [18]: 0.14%
- viability, T/C [19]: 30.3%
- viability, T/C [20]: 24.8%
- viability, T/C [21]: 22.4%
- viability, T/C [22]: 23.3%
- viability, T/C [23]: 18.2%
- viability, T/C [24]: 4.65%
- viability, T/C [25]: 28.4%
- viability, T/C [26]: 29.2%
- viability, T/C [27]: 24.5%
- viability, T/C [28]: 25%
- viability, T/C [29]: 20.4%
- viability, T/C [30]: 0.15%
- viability, T/C [31]: 30%
- viability, T/C [32]: 28.4%
- viability, T/C [33]: 28.1%
- viability, T/C [34]: 24.6%
- viability, T/C [35]: 18.5%
- viability, T/C [36]: 0.17%

SMILES: C=CC(=O)N1CCN(c2nc(=O)n(-c3c(C)ccnc3C(C)C)c3nc(-c4c(O)cccc4F)c(F)cc23)C(C)C1 (centres undefined) + CNC(=O)c1ccc(Nc2nc(OC3CCCC3)c3c(-c4ccc5nc(C)oc5c4)c[nH]c3n2)c(OC)c1
- IC50 (second compound 0.0316 µM): < 31.6 nM
- IC50 (second compound 0.1 µM): < 31.6 nM
- IC50 (second compound 0.316 µM): < 31.6 nM
- IC50 (second compound 1 µM): < 31.6 nM
- IC50 (second compound 3.16 µM): < 31.6 nM
- IC50 (second compound 10 µM): < 31.6 nM
- viability, T/C [1]: 36.8%
- viability, T/C [2]: 35.4%
- viability, T/C [3]: 29.5%
- viability, T/C [4]: 27.4%
- viability, T/C [5]: 23.5%
- viability, T/C [6]: 24.6%
- viability, T/C [7]: 34.6%
- viability, T/C [8]: 33.2%
- viability, T/C [9]: 27.6%
- viability, T/C [10]: 28.7%
- viability, T/C [11]: 26%
- viability, T/C [12]: 26.1%
- viability, T/C [13]: 34.9%
- viability, T/C [14]: 30.8%
- viability, T/C [15]: 27.1%
- viability, T/C [16]: 25.6%
- viability, T/C [17]: 24.8%
- viability, T/C [18]: 26.2%
- viability, T/C [19]: 35.7%
- viability, T/C [20]: 25.7%
- viability, T/C [21]: 28.8%
- viability, T/C [22]: 25.3%
- viability, T/C [23]: 31.9%
- viability, T/C [24]: 27.7%
- viability, T/C [25]: 32.3%
- viability, T/C [26]: 29.9%
- viability, T/C [27]: 28.3%
- viability, T/C [28]: 24.4%
- viability, T/C [29]: 27.6%
- viability, T/C [30]: 30.9%
- viability, T/C [31]: 32%
- viability, T/C [32]: 28.9%
- viability, T/C [33]: 27.8%
- viability, T/C [34]: 27.4%
- viability, T/C [35]: 29.9%
- viability, T/C [36]: 26.4%
